Measured values published in patent publication US20240279233A1, “MACROCYCLIC TAK1 INHIBITORS” (Aqilion AB, priority 2021, published 2024).
Converted amounts (≈) assume the structure as drawn. Read-outs that look alike come from different tables or passages of the source.

How the values were obtained:
[1] = from COC(=O)c1cccc2nc(NC(=O)c3cccc(C(=O)O)c3)n(CCCCCN)c12; amide bond; 14-membered ring; HATU/DIEA; 16.0 h; 2 steps
[2] = amide bond, 14-membered ring
[3] = test system: phosphorylated p38 (TAK1 activity) in THP-1 cells; experiment: Cell-based p38 phosphorylation assay (Western blot); conditions: for IC50: read-out: IC50 (nM) in phospho-p38 cell assay
Protocol: The cellular activity of example compounds 2, 3 and 9 and the comparative example (i.e. takinib) for inhibiting TAK1 activity was evaluated using an in vitro functional cell assay.
THP-1 cells were incubated at 37° C. in 5% CO2. THP-1 cells were cultured in RPMI 1640, 10% FBS, 1% Penicillin-Streptomycin.
THP-1 cells were treated with 100 nM phorbol 12-myristate 13-acetate (PMA) to induce macrophage differentiation and seeded at the density of 1×10^6 cells/well (2 ml/well in a 6-well plate) for 72 hours. The cell culture media was then replaced with PMA-free media and incubated for further 48 hours. Test compounds were prepared as 200×final assay concentration stocks in DMSO (final concentrations in the assay were 10-0.03 μM in 0.5% DMSO, details provided below). Following THP-1 cell differentiation, cells were treated with different concentrations of the control compound NG25 (CAS No.:1315355-93-1, Tan L, et al. J Med Chem. 2015, 58(1), 183-96) or test compounds (10 μl/well) for 30 minutes followed by 200 ng/ml LPS for 30 minutes.
Test items were kept as 10 mM stock solutions in 100% DMSO. The serial dilution of compounds was prepared as 200× serial dilutions of desired final concentration in […] to reach 0.5% DMSO working solution (see Table 3 below).
Dilution series of compounds from 10 μM final highest concentration to 0.03 μM final low concentration were first made in DMSO (see Table 3), 10 μl of each dilution was mixed into 2 ml of cell cultures (0.5% DMSO per well).
10 μl of DMSO was added to the control. All plates were incubated at 37° C., 5% CO2 for 30 minutes and LPS was added to a final concentration of 200 ng/ml.
For Western blot analysis, cells were lysed (50 mM Tris, 150 mM NaCl, 1 mM EDTA, 1% Triton-X100, 1 mM DTT, complete protease and PhosStop phosphatase inhibitor) after indicated treatment and run on NuPAGE Bis-Tris gel 4-12% gradient (Invitrogen). Following transfer to PVDF membrane and blocking in 5% BSA in PBST, membranes were incubated with primary antibody overnight (specific for phosphorylated p38; Cell Signaling, 1:1,000 dilution). After incubation with species-specific secondary antibodies for 1 hour at room temperature, the membranes were visualized with the ECL SuperSignal™ West Pico PLUS Chemiluminescent Substrate (Thermo Scientific). The images were captured with iBright Western Blot Imaging Systems (Invitrogen) and quantified with ImageJ software (Java-based image processing program developed at the National Institutes of Health and the Laboratory for Optical and Computational Instrumentation). Anti-β-actin antibodies were used as the loading control for whole-cell extracts in all samples (anti-β actin; Sigma-Aldrich, 1:5000 dilution, 1 hour incubation).
For immunoblotting, cells were lysed directly in six-well plates by incubating for 30 min at 4° C. in 60 μl Triton lysis buffer. The lysates were centrifuged for 15 minutes at 13,000×g at 4° C. Equal amount of protein from each supernatants were resuspended with 5× sample buffer. Samples were boiled for 10 minutes and then resolved by 4-12% SDS-PAGE (100 V). Proteins were transferred from gel to PVDF membranes ([…] pore size) following the recommended setting (90 minutes, 85 V). […]

[4] = target: human recombinant TAK1-TAB1 Kinase (TAK1 (1-303) and TAB1 (437-end)) (Homo sapiens (Human), UniProt O43318); experiment: TAK1 biochemical ADP-Glo kinase assay; conditions: MBP substrate
Procedure, shortened: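 Inhibition of human recombinant TAK1-TAB1 kinase was measured with a Promega ADP-Glo luminescence assay in 384-well plates. Compounds in 5% DMSO were pre-incubated 10 min with 2 μl TAK1-TAB1 (7.5 ng/μl) in buffer of Tris pH 7.5, MgCl2, DTT and BSA. MBP substrate and ATP were then added for 1 hour at room temperature. ADP-Glo reagent and kinase detection substrate followed, luminescence was read on an Envision, and IC50 came from non-linear regression.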

[5] = pH 7.4
Protocol: (§1) The aqueous solubility of selected example compounds was determined as follows; 6 μL of DMSO stock solution of the selected example was added to 594 μL phosphate buffer (100 mM, pH 7.4). The resulting mixture was equilibrated over night (20-24 h, Alligator Shaker, room temperature). The mixture was then filtered (Millex LH 0.45 μm) and the concentration/solubility was determined by LC-UV quantification.

[6] = Solubility assay in phosphate buffer; conditions: phosphate buffer, pH 7.4, aqueous buffer, kinetic from dmso stock, Solubility (μM), phosphate buffer 100 mM, pH 7.4, room temperature, 20-24 h, LC-UV
Protocol: as §1

[7] = from CN1CCN(Cc2cc(C(=O)N(C)C)c3c(c2)nc(NC(=O)c2cccc(C(=O)O)c2)n3CCCCCN)CC1; amide bond; 14-membered ring; HATU/DIEA; THF, then DMF; 0.46 mM; 40.0 °C; 18.0 h
[8] = PMA-differentiated THP-1 cells, compound 30 minutes then 200 ng/ml LPS 30 minutes
[9] = 10 μM ATP, read-out: TAK1 Mean IC50 (nM) @ 10 μM ATP
[10] = Homo sapiens, 0.5 h, PMA-differentiated THP-1 cells, compound 30 minutes then 200 ng/ml LPS 30 minutes

Chain of human recombinant TAK1-TAB1 Kinase (TAK1 (1-303) and TAB1 (437-end)) (O43318 other isoform, or with tags, fused parts or gaps): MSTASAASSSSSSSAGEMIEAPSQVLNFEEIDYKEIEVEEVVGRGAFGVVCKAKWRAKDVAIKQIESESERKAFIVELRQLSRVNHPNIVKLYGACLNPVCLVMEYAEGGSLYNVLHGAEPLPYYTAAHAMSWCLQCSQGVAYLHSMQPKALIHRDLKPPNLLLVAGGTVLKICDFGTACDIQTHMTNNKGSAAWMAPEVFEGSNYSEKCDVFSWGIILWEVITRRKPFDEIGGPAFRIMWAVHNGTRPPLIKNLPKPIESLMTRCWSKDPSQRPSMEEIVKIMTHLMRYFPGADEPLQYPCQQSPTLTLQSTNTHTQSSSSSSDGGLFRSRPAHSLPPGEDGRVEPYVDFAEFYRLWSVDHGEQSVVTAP

For `COC(=O)c1cccc2nc3n(c12)CCCCCNC(=O)c1cccc(c1)C(=O)N3`, the ring closure, crude yield [1] was 76%.
Work on `COC(=O)c1cc(Br)cc2nc3n(c12)[C@@H](C)CCCCNC(=O)c1cccc(c1)C(=O)N3` yielded a ring closure, isolated yield ([2]; from COC(=O)c1cc(Br)cc2nc(NC(=O)c3cccc(C(=O)O)c3)n([C@@H](C)CCCCN)c12, TCFH/NMI, DMF/MeCN, 1.4 mM, 0.0 °C, 16.0 h) of 30%.
In the case of `CC1CCCCNC(=O)c2cccc(c2)C(=O)Nc2nc3cccc(C(=O)N4CCN(C(=O)OC(C)(C)C)CC4)c3n21` (stereo not shown) [Example 9, tert-butyl 4-(11-methyl-3,5-dioxo-1^1H-2,6-diaza-1(2,1)-benzo[d]imidazola-4(1,3)-benzenacycloundecaphane-1^7-carbonyl)piperazine-1-carboxylate], the IC50 [3, 8] is reported as 600 nM, the “potency and efficacy compared with Comparative Example 1 (takinib)” value ([3]; THP-1 cells, LPS, phospho-p38) is reported as “greater” and the IC50 [4, 9] is reported as 1 nM. For the same molecule, the “solubility” value [5] was 30.9 µM (≈ 17.8 µg/mL).
Work on `C#Cc1cccc2nc3n(c12)[C@@H](C)CCCCNC(=O)c1cccc(c1)C(=O)N3` yielded a ring closure, isolated yield ([2]; from C#Cc1cccc2nc(NC(=O)c3cccc(C(=O)O)c3)n([C@@H](C)CCCCN)c12, TCFH/NMI, MeCN/DMF, 0.82 mM, 0.0 °C, 4.0 h) of 73%.
Work on `C[C@H]1CCCCNC(=O)c2cccc(c2)C(=O)Nc2nc3ccnc(Cl)c3n21` yielded a ring closure, isolated yield ([2]; from C[C@@H](CCCCN)n1c(NC(=O)c2cccc(C(=O)O)c2)nc2ccnc(Cl)c21, TCFH/NMI, DMF/MeCN, 0.6 mM, 25.0 °C, 3.0 h) of 20%.
For `COC(=O)c1cccc2nc3n(c12)C(C)CCCCNC(=O)c1cccc(c1)C(=O)N3` (stereo not shown) [Example 7, methyl 11-methyl-3,5-dioxo-1^1H-2,6-diaza-1(2,1)-benzo[d]imidazola-4(1,3)-benzenacycloundecaphane-1^7-carboxylate], the ring closure, isolated yield ([2]; from COC(=O)c1cccc2nc(NC(=O)c3cccc(C(=O)O)c3)n(C(C)CCCCN)c12, HATU/TEA, dioxane, 2.2 mM, 25.0 °C, 16.0 h, 2 steps) was 21%, the IC50 [4, 9] was 4 nM and the “solubility” value [5] was 0.9 µM (≈ 0.378 µg/mL).
For `CC1CCCCNC(=O)c2cccc(c2)C(=O)Nc2nc3cccc(N4CCCC4=O)c3n21` (stereo not shown), the ring closure, isolated yield ([2]; from CC(CCCCN)n1c(NC(=O)c2cccc(C(=O)O)c2)nc2cccc(N3CCCC3=O)c21, TCFH/NMI, DMF/MeCN, 4.2 mM, 25.0 °C, 2.5 h) was 7.7%.
In the case of `CCOC(=O)c1cnc(Cl)c2nc3n(c12)[C@@H](C)CCCCNC(=O)c1cccc(c1)C(=O)N3`, the ring closure, isolated yield ([2]; from CCOC(=O)c1cnc(Cl)c2nc(NC(=O)c3cccc(C(=O)O)c3)n([C@@H](C)CCCCN)c12, TCFH/NMI, MeCN/DMF, 1.29 mM, 0.0 °C, 4.0 h) is reported as 49%.
With `CCCn1c(NC(=O)c2cccc(C(N)=O)c2)nc2ccccc21` [takinib, N-(1-propyl-1H-benzo[d]imidazol-2-yl)isophthalamide, reference compound] the solubility [6] was 0.9 µM (≈ 0.29 µg/mL), the “IC50 (nM) in phospho-p38 cell assay” value [3, 8] was “inactive” and the IC50 [4, 9] was 17 nM. The IC50 ([4]; 1 mM ATP, read-out: TAK1 Mean IC50 (nM) @ 1 mM ATP) was 280 nM.
With `CN1CCN(Cc2ccc3c(c2)nc2n3CCCCCNC(=O)c3cccc(c3)C(=O)N2)CC1` [Example 3, 1^5-((4-methylpiperazin-1-yl)methyl)-1^1H-2,6-diaza-1(2,1)-benzo[d]imidazola-4(1,3)-benzenacycloundecaphane-3,5-dione] the solubility [6] was 31.5 µM (≈ 14.5 µg/mL), the ring closure, isolated yield ([2]; from CN1CCN(Cc2ccc3c(c2)nc(NC(=O)c2cccc(C(=O)O)c2)n3CCCCCN)CC1, HATU/DIEA, DMF, 2.4 mM, 1.17 h) was 13% and the IC50 [3, 10] was 4.5 nM. For the same molecule, the IC50 [4, 9] was 1 nM.
In the case of `C[C@@H]1CCCCNC(=O)c2cccc(c2)C(=O)Nc2nc3cccc(N4CCN(C)C4=O)c3n21` [Example 65, (R,E)-11-methyl-1^7-(3-methyl-2-oxoimidazolidin-1-yl)-1^2,1^3-dihydro-1^1H-2,6-diaza-1(2,1)-benzo[d]imidazola-4(1,3)-benzenacycloundecaphane-3,5-dione], the solubility [6] is reported as 95 µM (≈ 43.8 µg/mL), the ring closure, isolated yield ([2]; from C[C@H](CCCCN)n1c(NC(=O)c2cccc(C(=O)O)c2)nc2cccc(N3CCN(C)C3=O)c21, HATU/DIEA, THF, 0.5 mM, 25.0 °C, 96.0 h) is reported as 15% and the IC50 [4, 9] is reported as 4 nM.
Molecule `O=C1NCCCCCn2c(nc3ccccc32)NC(=O)c2cccc1c2` [Example 2, 1^1H-2,6-diaza-1(2,1)-benzo[d]imidazola-4(1,3)-benzenacycloundecaphane-3,5-dione] has a solubility [6] of 0.5 µM (≈ 0.174 µg/mL), a ring closure, isolated yield ([2]; from NCCCCCn1c(NC(=O)c2cccc(C(=O)O)c2)nc2ccccc21, HATU/DIEA, DMF, 51.0 mM, 25.0 °C, 16.0 h) of 2% and an IC50 [3, 10] of 200 nM. The IC50 [4, 9] was 3 nM.
For `O=C1NCCCCCn2c(nc3cccc(C(=O)O)c32)NC(=O)c2cccc1c2` [Example 18, (E)-3,5-dioxo-1^2,1^3-dihydro-1^1H-2,6-diaza-1(2,1)-benzo[d]imidazola-4(1,3)-benzenacycloundecaphane-1^7-carboxylic acid], the IC50 [4, 9] was 9 nM and the “solubility” value [5] was 95.0 µM (≈ 37.3 µg/mL).
In the case of `Cc1nnc(-c2cccc3nc4n(c23)C(C)CCCCNC(=O)c2cccc(c2)C(=O)N4)o1` (stereo not shown), the ring closure, isolated yield ([2]; from Cc1nnc(-c2cccc3nc(NC(=O)c4cccc(C(=O)O)c4)n(C(C)CCCCN)c23)o1, HATU/DIEA, THF, 0.5 mM, 25.0 °C, 16.0 h, 2 steps) is reported as 13%.
`CN1CCN(Cc2cc(C(=O)N(C)C)c3c(c2)nc2n3CCCCCNC(=O)c3cccc(c3)C(=O)N2)CC1` [Example 27, (E)-N,N-dimethyl-1^5-((4-methylpiperazin-1-yl)methyl)-3,5-dioxo-1^2,1^3-dihydro-1^1H-2,6-diaza-1(2,1)-benzo[d]imidazola-4(1,3)-benzenacycloundecaphane-1^7-carboxamide] showed a solubility [6] of 61.3 µM (≈ 32.6 µg/mL), an IC50 [4, 9] of 8 nM and a ring closure, yield after HPLC [7] of 10%.
